Values after ≈ are worked out from the molar mass of the structure shown.
Settings: buffer; pH 7.4; 200.0 µM
In the case of COc1ccc(-n2c(C)cc(-c3cn4cccc(C)c4n3)c2C)cc1, the solubility kinetic is reported as 11.9 µg/mL (≈ 35.9 µM). Compound O=C(CSCc1ccc(Br)cc1)NC1CC1 has a solubility kinetic of 38.7 µg/mL (≈ 129 µM). Compound O=C(NCc1cccc(C(F)(F)F)c1)c1ccc(=O)[nH]c1 has a solubility kinetic greater than 44.4 µg/mL. Cc1cc(=O)[nH]c(SCC(=O)N2CCCC(C)C2)n1 (stereo not given) showed a solubility kinetic greater than 42.2 µg/mL. Work on COCCn1c(C)cc(/C=C2/SC(=O)N(C(C)C(=O)OC)C2=O)c1C (stereo not given) yielded a solubility kinetic of 36 µg/mL (≈ 98.2 µM). Compound O=S(=O)(Nc1cccc2cccnc12)c1ccccc1 has a solubility kinetic of 3.9 µg/mL (≈ 13.7 µM). With COc1ccc(NC(=O)CSc2ccc3c(c2)OCCO3)cc1 the solubility kinetic was 46.1 µg/mL (≈ 139 µM). Work on O=C(NCC(c1ccco1)N1CCCC1)c1sc2cc(F)ccc2c1Cl (stereo not given) yielded a solubility kinetic of 7.5 µg/mL (≈ 19.1 µM). Work on CCNC(=O)C12CCC(C)(c3nc4cc(C)c(C)cc4nc31)C2(C)C (stereo not given) yielded a solubility kinetic of 47.4 µg/mL (≈ 140 µM). Compound CC(=O)c1ccc(Oc2ncnc(N)c2[N+](=O)[O-])cc1 has a solubility kinetic of 2.3 µg/mL (≈ 8.39 µM). With COc1ccc(CCNC(=O)c2cc(=O)[nH]c3ccccc23)cc1 the solubility kinetic was 1.9 µg/mL (≈ 5.89 µM). Work on Cc1ccc(NC(=S)N(N)CCO)cc1 yielded a solubility kinetic greater than 33.8 µg/mL. For Cc1ccc(Nc2cc(C)nc3ccccc23)c(C)c1, the solubility kinetic was greater than 39.4 µg/mL. COc1ccc2nc(NC(=O)NC3CCCCC3)sc2c1 gave a solubility kinetic of less than 0.2 µg/mL. Cc1cc(-c2nc3ccccc3[nH]2)ccc1N showed a solubility kinetic greater than 33.5 µg/mL. CN(C(=O)c1cccs1)C1(C)CCS(=O)(=O)C1 (stereo not given) showed a solubility kinetic greater than 41 µg/mL. In the case of O=C(NC1CCCC1)c1cccc(Cl)c1, the solubility kinetic is reported as 32.6 µg/mL (≈ 146 µM). Work on O=C(c1c[nH]c2ccccc12)N1CCOCC1 yielded a solubility kinetic of 26.3 µg/mL (≈ 114 µM). Work on CC(C)OC(=O)CSc1nc(Cc2ccccc2)nc2ccccc12 yielded a solubility kinetic of less than 0.4 µg/mL. CC(C)N1CC(COc2ccc(Br)cc2)OC1=O (stereo not given) showed a solubility kinetic of 45.1 µg/mL (≈ 144 µM). Nc1ccccc1C(=O)NC1CCCNC1=O (stereo not given) gave a solubility kinetic greater than 35 µg/mL. CC(=O)c1cccc(N2C(=O)CC(N3CCN(S(=O)(=O)c4ccccc4F)CC3)C2=O)c1 (stereo not given) showed a solubility kinetic greater than 68.9 µg/mL. Work on C=CCOc1ccc(/C=C2/C(=O)ON=C2C)cc1OCC yielded a solubility kinetic of 28.3 µg/mL (≈ 98.5 µM). For O=C(NNC(=S)NC(=O)c1ccc(F)cc1)c1ccncc1, the solubility kinetic was greater than 47.7 µg/mL. CN(C(=O)COc1ncnc2sccc12)C1CCCCC1 showed a solubility kinetic greater than 45.8 µg/mL. Work on CC(C)N(C(=O)Cn1cc(SCC(N)=O)c2ccccc21)C(C)C yielded a solubility kinetic greater than 52.1 µg/mL. O=C(NCc1ccccc1)c1ccccc1-c1nc2ccccc2[nH]1 gave a solubility kinetic of 2.2 µg/mL (≈ 6.72 µM). In the case of N[C@@H](Cc1c[nH]c2ccc(O)cc12)C(=O)O, the solubility kinetic is reported as 32.6 µg/mL (≈ 148 µM). Compound O=S(=O)(c1ccccc1)N1CCN(c2ccccc2)CC1 has a solubility kinetic of 0.4 µg/mL (≈ 1.32 µM). Work on CC(C)(C)NC(=O)COC(=O)c1c2c(nc3ccccc13)CCC2 yielded a solubility kinetic of 35.8 µg/mL (≈ 110 µM). In the case of S=C(Nc1cccnc1)Nc1ccccn1, the solubility kinetic is reported as greater than 34.5 µg/mL. CCOc1ncccc1C(=O)OC(C)C(=O)NC1CCCCC1 (stereo not given) showed a solubility kinetic greater than 48.1 µg/mL. CCN1C(=O)C(=O)N(CC(=O)Nc2cccc(C(F)(F)F)c2)C1=O gave a solubility kinetic greater than 51.5 µg/mL. Work on CCOC(=O)c1c(C)n(Cc2ccccc2)c2ccc(O)cc12 yielded a solubility kinetic of less than 0.7 µg/mL. For CCOc1ccc(C2NC(=O)c3ccccc3O2)cc1OC (stereo not given), the solubility kinetic was 3.3 µg/mL (≈ 11 µM). CCNS(=O)(=O)c1ccc(CCC(=O)N2CCCC2)cc1 gave a solubility kinetic greater than 46.6 µg/mL. For COCc1c(C(=O)OCc2c(C)noc2C)oc2ccccc12, the solubility kinetic was 33.2 µg/mL (≈ 105 µM). For O=C(c1ccc(-c2ccc(Cl)cc2Cl)o1)N1CCOCC1, the solubility kinetic was 4.2 µg/mL (≈ 12.9 µM). Work on CCn1c(=O)n(CC)c2cc([N+](=O)[O-])c(N3CCNCC3)cc21 yielded a solubility kinetic greater than 47.9 µg/mL. For Cc1cc2ccccn2c1C(=O)c1ccc(F)cc1, the solubility kinetic was 0.9 µg/mL (≈ 3.55 µM). COc1ccc(Oc2cccc(Cl)c2CNC(=O)CCC(=O)O)cc1 showed a solubility kinetic of 49.5 µg/mL (≈ 136 µM). In the case of COc1ccc(CC(=O)NCC2CCCCC2)cc1OC, the solubility kinetic is reported as greater than 43.7 µg/mL. Work on CCCNC(=O)COC(=O)c1c2c(nc3ccccc13)CCC2 yielded a solubility kinetic of 45.5 µg/mL (≈ 146 µM). CCCCOC(=O)c1ccc(NC(=O)C(=O)NCc2ccco2)cc1 showed a solubility kinetic of less than 0.4 µg/mL. In the case of Cc1ccc(OCC(=O)NCCCNC(=O)c2ccncc2)cc1, the solubility kinetic is reported as greater than 49.1 µg/mL. With Cc1cc(NS(=O)(=O)c2cccc([N+](=O)[O-])c2)no1 the solubility kinetic was 32.5 µg/mL (≈ 115 µM). In the case of S=C(NC1CCCCC1)NC1CC2C=CC1C2 (stereo not given), the solubility kinetic is reported as 19.5 µg/mL (≈ 77.9 µM). Compound Cc1ccc(C(=O)CSc2nc(C(C)C)nc3ccccc23)cc1 has a solubility kinetic of 0.6 µg/mL (≈ 1.78 µM). O=C(NCC1CCCO1)c1cc2ccccc2cc1O (stereo not given) gave a solubility kinetic greater than 40.7 µg/mL. Compound CCCCOc1ccc(CN2CCSCC2)cc1 has a solubility kinetic of 14.1 µg/mL (≈ 53.1 µM). Compound CCCCS(=O)(=O)N1CCCC(C(=O)N2CCOCC2)C1 (stereo not given) has a solubility kinetic of 42.4 µg/mL (≈ 133 µM). With Cc1cccc(-c2nnc(SCC(=O)Nc3cc(C)on3)n2C)c1 the solubility kinetic was greater than 51.5 µg/mL. CC(=O)C1=NOC2C(=O)N(c3ccccc3)C(=O)C12 (stereo not given) showed a solubility kinetic greater than 38.7 µg/mL. O=[N+]([O-])c1cc(F)c(N2CCCCC2)cc1Br showed a solubility kinetic of 0.3 µg/mL (≈ 0.99 µM). Compound Nc1cccc(Oc2ccc3c(c2)C(=O)NC3=O)c1 has a solubility kinetic of 36.6 µg/mL (≈ 144 µM). Compound Cc1ccc(NC(=O)c2c([N+](=O)[O-])cnn2C)cc1C has a solubility kinetic greater than 41.1 µg/mL. With O=S(=O)(Nc1ccccc1)c1cccc2nonc12 the solubility kinetic was greater than 41.3 µg/mL. COc1ccccc1CNC(=O)c1cc2ccccc2o1 showed a solubility kinetic of 10.1 µg/mL (≈ 35.9 µM). For COc1ccc(OC)c(S(=O)(=O)NC2CC2)c1, the solubility kinetic was greater than 38.6 µg/mL. O=C(Nc1cccc(-c2cn3ccccc3n2)c1)c1ccccc1 gave a solubility kinetic of 21 µg/mL (≈ 67 µM).

— PubChem BioAssay AID1996
